From patent publication US20230278972A1, “SUBSTITUTED HALOALKYL SULFONANILIDE HERBICIDES” (FMC Corporation, priority 2020, published 2023)

Columns and labels:
Assay type in all cases: in vivo
[1] = system: ragweed (common ragweed, Ambrosia artemisiifolia); test: Test A postemergence, ragweed; conditions: Postemergence, 0 to 100 scale (0 no effect, 100 complete control); for Plant response rating, Ragweed: 125 g ai/ha, visual injury approx. 10 days; for Ragweed plant response rating: 500 g ai/ha, visual injury vs untreated controls after approx. 10 days
Method in brief: (§1)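 Formulated with a surfactant in a non-phytotoxic solvent, compounds are applied to loam–sand pots, either to bare soil immediately after seeding (preemergence) or to seedlings of 2 to 10 cm bearing one to two leaves (postemergence).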

[2] = system: barnyardgrass (Echinochloa crus-galli); test: Test A postemergence, barnyardgrass; conditions: Postemergence, 0 to 100 scale (0 no effect, 100 complete control); for Plant response rating, Barnyardgrass: 125 g ai/ha, visual injury approx. 10 days; for Barnyardgrass plant response rating: 500 g ai/ha, visual injury vs untreated controls after approx. 10 days
Method in brief: (§2)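 After sowing into a sand-amended loam, pots for the preemergence test were treated by spraying directly onto soil. In parallel, seedlings at the one- to two-leaf stage and 2 to 10 cm tall were treated postemergence with the identical surfactant-containing formulation.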

[3] = system: pigweed (Amaranthus retroflexus); test: Test A postemergence, pigweed; conditions: Postemergence, 0 to 100 scale (0 no effect, 100 complete control); for Plant response rating, Pigweed: 125 g ai/ha, visual injury approx. 10 days; for Pigweed plant response rating: 500 g ai/ha, visual injury vs untreated controls after approx. 10 days
Method in brief: as §1

[4] = system: blackgrass (Alopecurus myosuroides); test: Test A postemergence, blackgrass; conditions: Postemergence, 0 to 100 scale (0 no effect, 100 complete control); for Plant response rating, Blackgrass: 125 g ai/ha, visual injury approx. 10 days; for Blackgrass plant response rating: 500 g ai/ha, visual injury vs untreated controls after approx. 10 days
Method in brief: as §1

[5] = system: barnyardgrass (Echinochloa crus-galli); test: Test A preemergence, barnyardgrass; conditions: Preemergence; for Barnyardgrass plant response rating: 125 g ai/ha, visual injury on 0 to 100 scale (0 no effect, 100 complete control), approximately 10 days; for Plant response rating, Barnyardgrass: 500 g ai/ha, 0 to 100 scale (0 no effect, 100 complete control)
Method in brief: as §1

[6] = system: Ryegrass, Italian (Italian ryegrass, Lolium multiflorum); test: Test A preemergence, Ryegrass, Italian; conditions: Preemergence; for Ryegrass, Italian plant response rating: 125 g ai/ha, visual injury on 0 to 100 scale (0 no effect, 100 complete control), approximately 10 days; for Plant response rating, Ryegrass, Italian: 500 g ai/ha, 0 to 100 scale (0 no effect, 100 complete control)
Method in brief: as §1

[7] = system: galium (catchweed bedstraw, Galium aparine); test: Test A postemergence, galium; conditions: Postemergence, 0 to 100 scale (0 no effect, 100 complete control); for Plant response rating, Galium: 125 g ai/ha, visual injury approx. 10 days; for Galium plant response rating: 500 g ai/ha, visual injury vs untreated controls after approx. 10 days
Method in brief: as §2

[8] = system: pigweed (Amaranthus retroflexus); test: Test A preemergence, pigweed; conditions: for Pigweed plant response rating: 125 g ai/ha, visual injury on 0 to 100 scale (0 no effect, 100 complete control), approximately 10 days; for Plant response rating, Pigweed: 500 g ai/ha, 0 to 100 scale (0 no effect, 100 complete control)
Method in brief: as §2

[9] = system: Ryegrass, Italian (Italian ryegrass, Lolium multiflorum); test: Test A postemergence, Ryegrass, Italian; conditions: Postemergence, 0 to 100 scale (0 no effect, 100 complete control); for Plant response rating, Ryegrass, Italian: 125 g ai/ha, visual injury approx. 10 days; for Ryegrass, Italian plant response rating: 500 g ai/ha, visual injury vs untreated controls after approx. 10 days
Method in brief: as §1

kochia (Bassia scoparia) [10] = test: Test A preemergence, kochia; conditions: Preemergence; for Kochia plant response rating: 125 g ai/ha, visual injury on 0 to 100 scale (0 no effect, 100 complete control), approximately 10 days; for Plant response rating, Kochia: 500 g ai/ha, 0 to 100 scale (0 no effect, 100 complete control)
Method in brief: as §1

[11] = system: ragweed (common ragweed, Ambrosia artemisiifolia); test: Test A preemergence, ragweed; conditions: Preemergence; for Ragweed plant response rating: 125 g ai/ha, visual injury on 0 to 100 scale (0 no effect, 100 complete control), approximately 10 days; for Plant response rating, Ragweed: 500 g ai/ha, 0 to 100 scale (0 no effect, 100 complete control)
Method in brief: as §1

[12] = system: Foxtail, Giant (giant foxtail, Setaria faberi); test: Test A postemergence, Foxtail, Giant; conditions: Postemergence, 0 to 100 scale (0 no effect, 100 complete control); for Plant response rating, Foxtail, Giant: 125 g ai/ha, visual injury approx. 10 days; for Foxtail, Giant plant response rating: 500 g ai/ha, visual injury vs untreated controls after approx. 10 days
Method in brief: as §1

kochia (Bassia scoparia) [13] = test: Test A postemergence, kochia; conditions: Postemergence, 0 to 100 scale (0 no effect, 100 complete control); for Plant response rating, Kochia: 125 g ai/ha, visual injury approx. 10 days; for Kochia plant response rating: 500 g ai/ha, visual injury vs untreated controls after approx. 10 days
Method in brief: as §1

[14] = system: Foxtail, Giant (giant foxtail, Setaria faberi); test: Test A preemergence, Foxtail, Giant; conditions: Preemergence; for Foxtail, Giant plant response rating: 125 g ai/ha, visual injury on 0 to 100 scale (0 no effect, 100 complete control), approximately 10 days; for Plant response rating, Foxtail, Giant: 500 g ai/ha, 0 to 100 scale (0 no effect, 100 complete control)
Method in brief: as §1

[15] = system: wheat (Triticum aestivum); test: Test A postemergence, wheat; conditions: Postemergence, 0 to 100 scale (0 no effect, 100 complete control); for Plant response rating, Wheat: 125 g ai/ha, visual injury approx. 10 days; for Wheat plant response rating: 500 g ai/ha, visual injury vs untreated controls after approx. 10 days
Method in brief: as §2

corn (Zea mays) = test: Test A postemergence, corn; conditions: Postemergence, 0 to 100 scale (0 no effect, 100 complete control); for Plant response rating, Corn: 125 g ai/ha, visual injury approx. 10 days; for Corn plant response rating: 500 g ai/ha, visual injury vs untreated controls after approx. 10 days
Method in brief: as §1

Structure (SMILES)	Plant response rating, Ragweed [1]	Ragweed plant response rating [1]	Plant response rating, Barnyardgrass [2]	Barnyardgrass plant response rating [2]	Plant response rating, Pigweed [3]	Pigweed plant response rating [3]	Plant response rating, Blackgrass [4]	Blackgrass plant response rating [4]	Barnyardgrass plant response rating [5]	Plant response rating, Barnyardgrass [5]	Ryegrass, Italian plant response rating [6]	Plant response rating, Ryegrass, Italian [6]	Plant response rating, Galium [7]	Galium plant response rating [7]	Pigweed plant response rating [8]	Plant response rating, Pigweed [8]	Plant response rating, Ryegrass, Italian [9]	Ryegrass, Italian plant response rating [9]	Kochia plant response rating (kochia (Bassia scoparia) [10])	Plant response rating, Kochia (kochia (Bassia scoparia) [10])	other results
CCn1nc(Cl)cc(-c2cc(NS(=O)(=O)C(F)(F)F)c(C)cc2C)c1=O [Compound 51]	50	80	30	80	60	80	20	70	100	100	90	100	40	60	80	90	70	80	80	90	Ragweed plant response rating [11]: 60; Plant response rating, Ragweed [11]: 90; Plant response rating, Foxtail, Giant [12]: 30; Foxtail, Giant plant response rating [12]: 80; Plant response rating, Kochia (kochia (Bassia scoparia) [13]): 10; Kochia plant response rating (kochia (Bassia scoparia) [13]): 60; Foxtail, Giant plant response rating [14]: 100; Plant response rating, Foxtail, Giant [14]: 100; Plant response rating, Wheat [15]: 50; Wheat plant response rating [15]: 60; Plant response rating, Corn (corn (Zea mays)): 0; Corn plant response rating (corn (Zea mays)): 20
CCn1nc(C)cc(-c2cc(N(S(=O)(=O)C(F)(F)F)S(=O)(=O)C(F)(F)F)c(C)cc2C)c1=O [Compound 52]	30	60	0	80	30	50	0	80	100	100	90	90	60	80	50	90	20	40	70	90	Ragweed plant response rating [11]: 10; Plant response rating, Ragweed [11]: 60; Plant response rating, Foxtail, Giant [12]: 0; Foxtail, Giant plant response rating [12]: 80; Plant response rating, Kochia (kochia (Bassia scoparia) [13]): 30; Kochia plant response rating (kochia (Bassia scoparia) [13]): 80; Foxtail, Giant plant response rating [14]: 100; Plant response rating, Foxtail, Giant [14]: 100; Plant response rating, Wheat [15]: 60; Wheat plant response rating [15]: 70; Plant response rating, Corn (corn (Zea mays)): 0; Corn plant response rating (corn (Zea mays)): 0
COC(=O)N(c1cc(-c2ccnn(C)c2=O)c(C)cc1C)S(=O)(=O)C(F)(F)F [Compound 53]	20	20	0	0	0	0	0	0	0	0	0	0	50	80	0	0	0	0	0	0	Ragweed plant response rating [11]: 0; Plant response rating, Ragweed [11]: 40; Plant response rating, Foxtail, Giant [12]: 0; Foxtail, Giant plant response rating [12]: 0; Plant response rating, Kochia (kochia (Bassia scoparia) [13]): 0; Kochia plant response rating (kochia (Bassia scoparia) [13]): 0; Foxtail, Giant plant response rating [14]: 0; Plant response rating, Foxtail, Giant [14]: 0; Plant response rating, Wheat [15]: 0; Wheat plant response rating [15]: 0; Plant response rating, Corn (corn (Zea mays)): 0; Corn plant response rating (corn (Zea mays)): 0
COc1cnn(-c2cc(NS(=O)(=O)C(F)(F)F)c(C)cc2C)c(=O)c1 [Compound 54]	80	90	0	10	40	70	0	0	0	0	0	20	60	90	40	90	40	40	60	90	Ragweed plant response rating [11]: 50; Plant response rating, Ragweed [11]: 90; Plant response rating, Foxtail, Giant [12]: 0; Foxtail, Giant plant response rating [12]: 0; Plant response rating, Kochia (kochia (Bassia scoparia) [13]): 60; Kochia plant response rating (kochia (Bassia scoparia) [13]): 80; Foxtail, Giant plant response rating [14]: 0; Plant response rating, Foxtail, Giant [14]: 10; Plant response rating, Wheat [15]: 0; Wheat plant response rating [15]: 0; Plant response rating, Corn (corn (Zea mays)): 0; Corn plant response rating (corn (Zea mays)): 10
CCn1nccc(-c2cc(NS(=O)(=O)C(F)(F)F)c(C)cc2F)c1=O [Compound 55]	20	40	30	40	20	70	0	20	0	100	70	90	90	90	70	90	50	60	80	80	Ragweed plant response rating [11]: 20; Plant response rating, Ragweed [11]: 90; Plant response rating, Foxtail, Giant [12]: 20; Foxtail, Giant plant response rating [12]: 90; Plant response rating, Kochia (kochia (Bassia scoparia) [13]): 60; Kochia plant response rating (kochia (Bassia scoparia) [13]): 80; Foxtail, Giant plant response rating [14]: 60; Plant response rating, Foxtail, Giant [14]: 100; Plant response rating, Wheat [15]: 20; Wheat plant response rating [15]: 70; Plant response rating, Corn (corn (Zea mays)): 0; Corn plant response rating (corn (Zea mays)): 50
